{"source": "patent US20240139167A1", "about": "“LYSOSOME-ASSOCIATED MEMBRANE PROTEIN TARGETING COMPOUNDS AND USES THEREOF” (HADASIT MEDICAL RESEARCH SERVICES AND DEVELOPMENT LTD., priority 2021, published 2024)", "key": {"Gbe^ys/ys mice": {"system": "Gbe^ys/ys mice", "assay": "Blood metabolic panel in Gbe^ys/ys mice", "type": "in vivo", "description": "FIGS. 3A-3I include a graph of the effect of Compound 1 on in vivo metabolism; mice were monitored by the Promethion High-Definition Behavioral Phenotyping System (Sable Instruments, Inc.) over a 24 hr period. Effective mass was calculated by power of 0.75. Data are mean±SEM from n=11 9 months old mice in the wt. control vehicle arm, n=6 9 months old mice in the GBE^ys/ys vehicle arm and n=7 9 months old mice in the Gbe^ys/ys 144DG11 (Compound 1)-treated arm. All injections were from the age of 4 months. […] Blood metabolic panel based on n=5, 9.5 months old mice treated as indicated (3I). Blood glucose was increased, and blood triglycerides decreased in Gbe^ys/ys […] by Compound 1 (p<0.05, Student's t-tests). *p<0.05 v wt. controls, #p<0.05 v GBE^ys/ys vehicle treated mice;\nThe inventors further tested whether Compound 1 is able to correct the hypoglycemia and hyperlipidemia observed in Gbe^ys/ys mice. Such an effect is expected from an agent capable of inducing the catabolism of liver glycogen with an ensuing rise in blood glucose. […] Muscle (creatine kinase) and liver (alanine transferase) functions were not affected by this treatment (FIG. 3I)."}, "[1]": {"system": "HC and APBD patient skin fibroblasts", "assay": "Seahorse ATP Rate Assay under glycogen burden", "type": "cell-based, human", "description": "FIGS. 4A-4D include a bar graph of PAS staining for total glycogen in skin fibroblasts from different APBD patients (4A), images of PAS staining for total glycogen in APBD87 fibroblasts glucose-starved for 48 h (left), or glucose starved and then replenished for the last 24 h to induce glycogen burden (right) (4B), image acquisition was done by Nikon Eclipse Ti2 microscope using a 40×PlanFluor objective and CY3 filter; graph of image-based multiparametric phenotyping of APBD fibroblasts under 48 h glucose-starvation, or starvation and glucose replenishment as in 4B (4C), level of significance p=0.01; and bar graph of glycolytic and mitochondrial ATP production determined by Agilent's Seahorse machine and ATP rate assay kit (4D). Healthy control (HC) and APBD patient fibroblasts were untreated or treated with 10 μM Compound 1 for 48 h (chronic), or on assay for 20 min (acute). Readings were normalized to cell number as determined by Crystal Violet staining. Shown are mean and SD values based on n=6 repeats.\nThe RQ shift towards carbohydrate catabolism observed in vivo prompted the inventors to investigate whether carbohydrate catabolism is also up-modulated intracellularly. To that end, and especially since glycogen levels are highly versatile among fibroblasts derived from different APBD patients (FIG. 4A), the inventors first aimed at inducing a physiological glycogen overload, or glycogen burden condition, equivalent to the one found in tissues. […] Therefore, the inventors selected this glycogen burden condition to analyze catabolism at a cell level using an ATP Rate Assay (Agilent's Seahorse ATP Rate Assay). The results"}, "APBD cells": {"system": "APBD cells", "assay": "Proteomics (nano LC-MS/MS, LFQ)", "type": "cell-based, human", "description": "Sample preparation for MS analysis. Cell lysates in RIPA buffer containing protease inhibitors were clarified by centrifugation and […] of protein was used for protein precipitation by the chloroform/methanol method. The precipitated proteins were solubilized in 100 μl of 8 M urea, 10 mM DTT, 25 mM Tris-HCl pH 8.0 and incubated for 30 min at 22 ° C. Iodoacetamide (55 mM) was added, and samples were incubated for 30 min (22 ° C., in the dark), followed by addition of DTT (10 mM). Fifty μl of the samples was transferred into a new tube, diluted by the addition of 7 volumes of 25 mM Tris-HCl pH 8.0 and sequencing-grade modified Trypsin (Promega Corp., Madison, WI) was added (0.35 μg/sample) followed by incubation overnight at 37° C. with gentle agitation. The samples were acidified by addition of 0.2% formic acid and desalted on C18 home-made Stage tips. Peptide concentration was determined by Absorbance at 280 nm and 0.75 μg of peptides were injected into the mass spectrometer.\nNano LC-MS/MS analysis. MS analysis was performed using a Q Exactive-HF mass spectrometer (Thermo Fisher Scientific, Waltham, MA USA) coupled on-line to a nanoflow UHPLC instrument, Ultimate 3000 Dionex (Thermo Fisher Scientific, Waltham, MA USA). Peptides dissolved in 0.1% formic acid were separated without a trap column over a 120 min acetonitrile gradient run at a flow rate of 0.3 μl/min on a reverse phase 25-cm-long C18 column (75 μm ID, 2 μm, 100 Å, Thermo PepMapRSLC). The instrument settings were as previously described. Survey scans (300-1,650 m/z, target value 3E6 charges, maximum ion injection time 20 ms) were acquired and followed by higher energy collisional dissociation (HCD)-based fragmentation (normalized collision energy 27). A resolution of 60,000 was used for survey scans and up to 15 dynamically chosen most abundant precursor ions, with “peptide preferable” profile were fragmented (isolation window 1.6 m/z). The MS/MS scans were acquired at a resolution of 15,000 (target value 1E5 charges, maximum ion injection times 25 ms). Dynamic exclusion was 20 sec. Data were acquired using Xcalibur software (Thermo Scientific). To avoid a carryover, the column was washed with 80% acetonitrile, 0.1% formic acid for 25 min between samples.\nMS data analysis. Mass spectra data were processed using the MaxQuant computational platform, version 1.6.14.0. Peak lists were searched against the Uniprot human FASTA sequence database from May 19, 2020, containing 49,974 entries. […] Relative protein quantification in MaxQuant was performed using the label-free quantification (LFQ) algorithm. […]\nTo validate the imaging-based analysis of the cell features modulated by the diseased state and by Compound 1, the inventors analyzed the effect of the disease and the treatment on protein expression. […]"}, "PD primary fibroblasts": {"system": "PD primary fibroblasts", "assay": "PAS staining of glycogen in Pompe disease fibroblasts", "type": "cell-based, human", "details": "24 h, 50 μM; listed as 144DG11", "source_text": "Yellow, Calcein used for cell segmentation, Blue, DAPI nuclear stain."}, "[2]": {"details": "both HC and APBD fibroblasts, glycogen burden"}}, "note": "“Also recorded” adds a separate entry of the source.", "data": [{"smiles": "COCCN(Cc1sccc1C)C(=O)c1cc(C)nc(O)c1", "note": "[Compound 1]", "values": [{"measurement": "hypoglycemia and hyperlipidemia", "setting": "Gbe^ys/ys mice; 9.5 months old mice", "value": "corrected to control levels"}, {"measurement": "muscle (creatine kinase) and liver (alanine transferase) functions", "setting": "Gbe^ys/ys mice; 9.5 months old mice", "value": "not affected"}, {"measurement": "blood glucose", "setting": "Gbe^ys/ys mice; 9.5 months old, p<0.05", "value": "increased"}, {"measurement": "blood triglycerides", "setting": "Gbe^ys/ys mice; 9.5 months old, p<0.05", "value": "decreased"}, {"measurement": "augmenting glycolytic contribution to ATP production: acute on assay supplementation vs 48 h pretreatment", "setting": "[1]", "value": "more effective"}, {"measurement": "overall ATP production", "setting": "[1]; [2]", "value": "increased"}, {"measurement": "relative contribution of glycolytic ATP production at the expense of mitochondrial (OxPhos) ATP production", "setting": "[1]; [2]", "value": "increased"}, {"measurement": "number of proteins down-modulated by APBD and up-modulated by compound", "setting": "APBD cells", "value": 49}, {"measurement": "number of proteins up-modulated by APBD and down-modulated by compound", "setting": "APBD cells", "value": 39}, {"measurement": "share of all proteins modified", "setting": "APBD cells; glycogen overladen (48 h starvation/24 h Gluc)", "value": 1.3, "unit": "%"}, {"measurement": "share of all proteins modified", "setting": "APBD cells; starved (48 h starvation)", "value": 1.7, "unit": "%"}, {"measurement": "glycogen (PAS staining)", "setting": "PD primary fibroblasts", "value": "reduce glycogen; also recorded: significantly lowered PAS staining"}]}]}
